Source: patent US7241893B2, “Thiazolinone 2-substituted quinolines” (Hoffman-La Roche Inc., priority 2004, dated 2007)

Target: T1, recombinant human CDK1/Cyclin B complex (Homo sapiens, UniProt P06493)
T1 construct: made in house; host or cells: High Five insect cells (baculovirus) for CDK1/GST-cyclin B; E. coli M15 for the Rb substrate
Assay: CDK1/Cyclin B kinase assay (FlashPlate or HTRF)
Type: biochemical
Conditions: Rb protein substrate, Ki=IC50/(1+[S]/Km)
Experimental: To determine inhibition of CDK1 activity, either FlashPlate™ (NEN™-Life Science Products) assay or HTRF assay was performed. Both types of kinase assays were carried out using recombinant human CDK1/Cyclin B complex. GST-cyclinB (GST-cycB) and CDK1 cDNA clones in baculovirus vectors were provided by Dr. W. Harper at the Baylor College of Medicine, Houston, Tex. Proteins were co-expressed in High Five™ insect cells and the complex was purified on glutathione Sepharose resin (Pharmacia, Piscataway, N.J.) as previously described (Harper, J. W. et al. Cell 1993, 75, 805–816). A 6x-Histidine tagged truncated form of retinoblastoma (Rb) protein (amino acid 386–928) was used as the substrate for the CDK1/Cyclin B assay (the expression plasmid was provided by Dr. Veronica Sullivan, Department of Molecular Virology, Roche Research Centre, Welwyn Garden City, United Kingdom). The Rb protein is a natural substrate for phosphorylation by CDK1 (see Herwig and Strauss Eur. J. Biochem. Vol. 246 (1997) pp. 581–601 and the references cited therein). The expression of the 62 Kd protein was under the control of an IPTG inducible promoter in an M15 E. coli strain. Cells were lysed by sonication and purification was carried out by binding lysates at pH 8.0 to a Ni-chelated agarose column pretreated with 1 mM imidazole. The resin was then washed several times with incrementally decreasing pH buffers to pH 6.0, and eluted with 500 mM imidazole. Eluted protein was dialysed against 20 mM HEPES pH 7.5, 30% glycerol, 200 mM NaCl, and 1 mM DTT. Purified Rb fusion protein stocks were quantitated for protein concentration, aliquoted, and stored at −70° C.
For the FlashPlate kinase assay, 96-well FlashPlates were coated with Rb protein at 10 μg/ml, using 100 μl per well. Plates were incubated at 4° C. overnight or at room temperature for 3 hours on a shaker. To control for nonspecific phosphorylation, one row of wells was coated with 100 μl/well coating buffer (20 mM HEPES, 0.2 M NaCl). Plates were then washed twice with wash buffer (0.01% Tween 20 in phosphate-buffered saline). Compounds to be tested (“test compounds”) were added to the wells at 5× final concentration. Reactions were initiated by immediate addition of 40 μl reaction mix (25 mM HEPES, 20 mM MgCl2, 0.002% Tween 20, 2 mM DTT, 1 [M ATP, 4 nM 33P-ATP) and a sufficient amount of enzyme to give counts that were at least 10-fold above background. Plates were incubated at room temperature on a shaker for 30 minutes. Plates were washed four times with the wash buffer, sealed, and counted on the TopCount scintillation counter (Packard Instrument Co., Downers Grove, Ill.]. The percent inhibition of Rb phosphorylation, which is a measure of the inhibition of CDK activity, was determined according to the following formula:
[formula] where “test compound” refers to the average counts per minute of the test duplicates, “nonspecific” refers to the average counts per minute when no CDK1/Cyclin B, etc., was added, and “total” refers to the average counts per minute when no compound was added. […] The value of the inhibitor constant Ki is calculated by the following: Ki=IC50/(1+[S]/Km), where [S] is the ATP concentration and Km is Michaelis constant.
The Homogeneous Time Resolved Fluorescence (HTRF) kinase assay was carried out in 96-well polypropylene plates (BD Biosciences, Bedford, Mass.). […]

T1 sequence (P06493 whole entry): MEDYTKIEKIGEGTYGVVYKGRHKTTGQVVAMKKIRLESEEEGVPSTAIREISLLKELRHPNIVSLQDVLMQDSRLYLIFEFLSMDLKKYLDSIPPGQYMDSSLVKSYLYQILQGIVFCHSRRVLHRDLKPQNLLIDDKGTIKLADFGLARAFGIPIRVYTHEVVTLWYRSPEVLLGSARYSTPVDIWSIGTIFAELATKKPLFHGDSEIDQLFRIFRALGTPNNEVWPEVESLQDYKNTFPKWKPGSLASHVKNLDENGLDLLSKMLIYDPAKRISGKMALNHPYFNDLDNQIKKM
T1 sequence (P14635 whole entry partner): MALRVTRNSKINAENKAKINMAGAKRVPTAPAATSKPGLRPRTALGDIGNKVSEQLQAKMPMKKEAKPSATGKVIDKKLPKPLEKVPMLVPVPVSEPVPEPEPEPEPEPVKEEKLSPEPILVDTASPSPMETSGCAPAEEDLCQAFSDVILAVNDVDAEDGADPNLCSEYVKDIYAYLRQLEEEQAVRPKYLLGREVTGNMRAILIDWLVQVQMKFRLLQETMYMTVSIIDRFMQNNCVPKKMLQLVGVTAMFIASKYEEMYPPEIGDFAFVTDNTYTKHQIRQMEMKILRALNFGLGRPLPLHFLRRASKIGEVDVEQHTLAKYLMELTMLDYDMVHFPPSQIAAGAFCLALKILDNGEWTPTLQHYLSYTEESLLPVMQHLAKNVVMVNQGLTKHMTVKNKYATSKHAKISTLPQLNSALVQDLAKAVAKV

Compound	Ki [nM]
Nc1ccc2cc(/C=C3\SC(N[C@@H]4C[C@H]4c4ccccc4)=NC3=O)ccc2n1 [Example 1, 5-[1-(2-Amino-quinolin-6-yl)-meth-(Z)-ylidene]-2-((1R,2S)-2-phenyl-cyclopropylamino)-thiazol-4-one; compound with trifluoro-acetic acid]	23
CCOc1cc(N)nc2ccc(/C=C3\SC(N)=NC3=O)cc12 [Example 3, 2-Amino-5-(2-amino-4-ethoxy-quinolin-6-ylmethylene)-thiazol-4-one]	30

More lines, now with the values ahead:

Ki [nM]	Compound
97	CCOc1cc(NC(C)=O)nc2ccc(/C=C3\SC(N)=NC3=O)cc12 [Example 7, N-(6-{2-Amino-4-oxo-4H-thiazol-5-ylidenemethyl}-4-ethoxy-quinolin-2-yl)-acetamide]
85	CCOc1cc(NC(C)=O)nc2ccc(/C=C3\SC(NC4CC4)=NC3=O)cc12 [Example 5, N-[6-(2-Cyclopropylamino-4-oxo-4H-thiazol-5-ylidenemethyl)-4-ethoxy-quinolin-2-yl]-acetamide]
3240	CCOc1cc(NC(C)=O)nc2ccc(/C=C3\SC(NCC4COCCO4)=NC3=O)cc12 (centres unmarked) [Example 9]
